Experimental data: ChEMBL document CHEMBL4138087, “Designing multi-targeted agents: An emerging anticancer drug discovery paradigm” (Eur J Med Chem, 2017)

Tests used:
A-431 [1] = experiment: Antiproliferative activity in human A431 Cells after 72 hrs by SRB assay; type: functional, cell-based; conditions: A-431, 72 h
[2] = target: Epidermal growth factor receptor (Homo sapiens, UniProt P00533); experiment: Inhibition of human A431 cells derived EGFR by ELISA
[3] = target: Proto-oncogene tyrosine-protein kinase Src (Homo sapiens, UniProt P12931); experiment: Inhibition of Src kinase (unknown origin)
Proto-oncogene tyrosine-protein kinase Src, sequence (P12931 2-536 limits assumed): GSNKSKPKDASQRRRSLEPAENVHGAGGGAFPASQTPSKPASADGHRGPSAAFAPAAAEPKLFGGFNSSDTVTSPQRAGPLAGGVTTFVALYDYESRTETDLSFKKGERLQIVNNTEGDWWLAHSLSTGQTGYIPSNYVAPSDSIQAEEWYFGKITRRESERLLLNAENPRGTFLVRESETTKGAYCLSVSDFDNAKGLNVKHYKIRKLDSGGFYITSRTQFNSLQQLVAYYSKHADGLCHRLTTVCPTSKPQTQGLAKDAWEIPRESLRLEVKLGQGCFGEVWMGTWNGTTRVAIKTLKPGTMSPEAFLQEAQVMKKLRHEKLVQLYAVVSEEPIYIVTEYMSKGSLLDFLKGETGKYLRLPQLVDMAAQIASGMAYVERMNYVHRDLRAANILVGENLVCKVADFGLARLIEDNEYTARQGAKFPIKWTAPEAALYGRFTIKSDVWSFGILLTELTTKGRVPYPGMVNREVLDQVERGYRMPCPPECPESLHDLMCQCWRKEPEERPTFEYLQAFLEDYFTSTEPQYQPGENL

A-431 [4] = experiment: Potency index, ratio of temozolomide IC50 to compound IC50 for human A431 Cells; type: functional

Epidermal growth factor receptor, sequence (P00533 whole entry): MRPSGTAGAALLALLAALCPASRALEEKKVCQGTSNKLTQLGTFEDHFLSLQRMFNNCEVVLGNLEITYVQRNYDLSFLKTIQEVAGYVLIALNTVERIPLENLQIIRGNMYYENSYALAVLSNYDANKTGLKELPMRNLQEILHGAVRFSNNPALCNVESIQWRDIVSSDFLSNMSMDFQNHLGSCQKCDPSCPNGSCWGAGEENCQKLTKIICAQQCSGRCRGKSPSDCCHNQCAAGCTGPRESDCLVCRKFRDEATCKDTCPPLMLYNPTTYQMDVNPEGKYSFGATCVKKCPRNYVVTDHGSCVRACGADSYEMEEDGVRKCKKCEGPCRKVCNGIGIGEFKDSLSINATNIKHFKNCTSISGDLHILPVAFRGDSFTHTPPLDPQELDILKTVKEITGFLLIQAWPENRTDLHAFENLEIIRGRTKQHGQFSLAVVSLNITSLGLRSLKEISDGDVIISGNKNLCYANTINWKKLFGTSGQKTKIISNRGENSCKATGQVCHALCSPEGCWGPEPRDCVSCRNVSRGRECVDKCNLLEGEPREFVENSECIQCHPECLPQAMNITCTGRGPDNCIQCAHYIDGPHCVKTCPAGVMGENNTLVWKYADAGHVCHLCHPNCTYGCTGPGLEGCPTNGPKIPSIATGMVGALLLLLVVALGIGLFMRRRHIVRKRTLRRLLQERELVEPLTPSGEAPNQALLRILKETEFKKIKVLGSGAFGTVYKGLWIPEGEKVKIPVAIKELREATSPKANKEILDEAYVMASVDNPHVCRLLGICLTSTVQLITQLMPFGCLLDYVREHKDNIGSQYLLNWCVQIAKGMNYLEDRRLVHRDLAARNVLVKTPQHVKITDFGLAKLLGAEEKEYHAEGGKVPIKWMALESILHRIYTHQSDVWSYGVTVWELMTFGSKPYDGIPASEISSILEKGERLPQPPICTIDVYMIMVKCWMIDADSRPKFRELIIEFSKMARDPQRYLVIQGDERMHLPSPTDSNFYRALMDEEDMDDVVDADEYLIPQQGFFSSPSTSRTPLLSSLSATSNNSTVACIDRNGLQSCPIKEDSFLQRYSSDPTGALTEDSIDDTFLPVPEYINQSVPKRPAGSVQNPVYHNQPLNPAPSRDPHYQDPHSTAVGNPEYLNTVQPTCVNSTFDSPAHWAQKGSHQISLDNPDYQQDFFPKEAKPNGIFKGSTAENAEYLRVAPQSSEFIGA

Compound	IC50 (A-431 [1])	IC50 [2]	IC50 [3]	Ratio IC50 (A-431 [4])
Cc1cccc(Nc2ncnc3ccc(N)cc23)c1	59 µM			
CN(CCN(C)Cc1ccc(C(=O)Nc2ccc3ncnc(Nc4cccc(Cl)c4)c3c2)cc1)CCn1nc(-c2ccc(Cl)cc2)c2c(N)ncnc21		0.32 µM	2.9 µM	
C/N=N/Nc1ccc2ncnc(Nc3cccc(C)c3)c2c1	36 µM			10
